Results published in PubChem BioAssay (NCI).
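Five concentrations, 48 hours, 96-well plates. TGI marks complete inhibition of growth.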

Columns and labels:
Experiment in all cases: NCI-60 cell line screen, 48 h
UO-31 renal = tested on: UO-31 renal
OVCAR-8 ovarian = tested on: OVCAR-8 ovarian
T-47D breast = tested on: T-47D breast
A549 NSCLC = tested on: A549 NSCLC
OVCAR-5 ovarian = tested on: OVCAR-5 ovarian
SK-MEL-28 melanoma = tested on: SK-MEL-28 melanoma
NCI-H522 lung = tested on: NCI-H522 lung
RXF 393 renal = tested on: RXF 393 renal
NCI-H460 lung = tested on: NCI-H460 lung
SNB-75 CNS = tested on: SNB-75 CNS
MDA-MB-231 breast = tested on: MDA-MB-231 breast
TK-10 renal = tested on: TK-10 renal

## CCOP(=O)(OCC)C(Cc1cn(S(=O)(=O)c2ccc(C)cc2)cn1)C(=O)O (stereo not drawn)
UO-31 renal
  TGI: > 100 µM
OVCAR-8 ovarian
  TGI: > 100 µM
T-47D breast
  TGI: > 100 µM
A549 NSCLC
  TGI: > 100 µM
OVCAR-5 ovarian
  TGI: > 100 µM
SK-MEL-28 melanoma
  TGI: > 100 µM
NCI-H522 lung
  TGI: > 100 µM
RXF 393 renal
  TGI: > 100 µM
NCI-H460 lung
  TGI: > 100 µM
SNB-75 CNS
  TGI: > 100 µM
MDA-MB-231 breast
  TGI: > 100 µM
TK-10 renal
  TGI: > 100 µM

## C#CCn1c(=O)c2cc(OC)c(OC)cc2n(CC#C)c1=O
UO-31 renal
  TGI: > 10 µM
OVCAR-8 ovarian
  TGI: > 10 µM
T-47D breast
  TGI: > 10 µM
A549 NSCLC
  TGI: > 10 µM
OVCAR-5 ovarian
  TGI: > 10 µM
SK-MEL-28 melanoma
  TGI: > 10 µM
NCI-H522 lung
  TGI: > 10 µM
RXF 393 renal
  TGI: > 10 µM
NCI-H460 lung
  TGI: > 10 µM
SNB-75 CNS
  TGI: > 10 µM
MDA-MB-231 breast
  TGI: > 10 µM
TK-10 renal
  TGI: > 10 µM

## Cc1ccc2c(=O)cc(-c3ccccc3)[nH]c2n1
UO-31 renal
  TGI: > 81.8 µM
OVCAR-8 ovarian
  TGI: 0.853 µM
T-47D breast
  TGI: > 100 µM
A549 NSCLC
  TGI: > 100 µM
OVCAR-5 ovarian
  TGI: > 100 µM
SK-MEL-28 melanoma
  TGI: > 100 µM
NCI-H522 lung
  TGI: 2.94 µM
RXF 393 renal
  TGI: 0.486 µM
NCI-H460 lung
  TGI: > 100 µM
SNB-75 CNS
  TGI: > 100 µM
MDA-MB-231 breast
  TGI: 22.8 µM
TK-10 renal
  TGI: > 9.36 µM

## COc1ccc2cc(CNCCOCCOCCNCc3ccc4cc(OC)ccc4c3)ccc2c1
UO-31 renal
  TGI: 2.61 µM
OVCAR-8 ovarian
  TGI: 2.97 µM
T-47D breast
  TGI: 3.22 µM
A549 NSCLC
  TGI: 3.12 µM
OVCAR-5 ovarian
  TGI: 3.89 µM
SK-MEL-28 melanoma
  TGI: 2.69 µM
NCI-H522 lung
  TGI: 3.49 µM
RXF 393 renal
  TGI: 3.18 µM
NCI-H460 lung
  TGI: 1.51 µM
SNB-75 CNS
  TGI: 3.03 µM
MDA-MB-231 breast
  TGI: 2.91 µM
TK-10 renal
  TGI: 2.98 µM

## CC(=O)OC1CC[C@@]2(C)C(=CC[C@@H]3[C@@H]2CC[C@]2(C)Nc4c(cnn4-c4ccc(F)cc4)C[C@@H]32)C1 (stereo partly drawn)
UO-31 renal
  TGI: > 100 µM
OVCAR-8 ovarian
  TGI: > 100 µM
T-47D breast
  TGI: > 100 µM
A549 NSCLC
  TGI: > 100 µM
OVCAR-5 ovarian
  TGI: > 100 µM
SK-MEL-28 melanoma
  TGI: > 100 µM
NCI-H522 lung
  TGI: > 100 µM
RXF 393 renal
  TGI: 11 µM
NCI-H460 lung
  TGI: > 100 µM
SNB-75 CNS
  TGI: 66.5 µM
MDA-MB-231 breast
  TGI: > 100 µM
TK-10 renal
  TGI: > 100 µM

## O=C(NC12CC3CC(CC(C3)C1)C2)n1cnc2c(Cl)ncnc21
UO-31 renal
  TGI: > 100 µM
OVCAR-8 ovarian
  TGI: 66.4 µM
T-47D breast
  TGI: > 100 µM
A549 NSCLC
  TGI: > 100 µM
OVCAR-5 ovarian
  TGI: > 100 µM
SK-MEL-28 melanoma
  TGI: > 100 µM
NCI-H522 lung
  TGI: 97.5 µM
RXF 393 renal
  TGI: > 100 µM
NCI-H460 lung
  TGI: 75.8 µM
SNB-75 CNS
  TGI: 73.8 µM
MDA-MB-231 breast
  TGI: > 100 µM
TK-10 renal
  TGI: > 100 µM

## Cn1c(=Nc2ccccc2[N+](=O)[O-])sc2ccccc21
UO-31 renal
  TGI: > 100 µM
OVCAR-8 ovarian
  TGI: > 100 µM
T-47D breast
  TGI: > 100 µM
A549 NSCLC
  TGI: > 100 µM
OVCAR-5 ovarian
  TGI: > 100 µM
SK-MEL-28 melanoma
  TGI: > 100 µM
NCI-H522 lung
  TGI: > 100 µM
RXF 393 renal
  TGI: > 100 µM
NCI-H460 lung
  TGI: > 100 µM
SNB-75 CNS
  TGI: 89 µM
MDA-MB-231 breast
  TGI: > 100 µM
TK-10 renal
  TGI: 45.2 µM

## O=C(NNC(=O)c1ccccc1O)c1cccs1
UO-31 renal
  TGI: > 100 µM
OVCAR-8 ovarian
  TGI: > 100 µM
T-47D breast
  TGI: > 100 µM
A549 NSCLC
  TGI: > 100 µM
OVCAR-5 ovarian
  TGI: > 100 µM
SK-MEL-28 melanoma
  TGI: > 100 µM
NCI-H522 lung
  TGI: 64 µM
RXF 393 renal
  TGI: > 100 µM
NCI-H460 lung
  TGI: > 100 µM
SNB-75 CNS
  TGI: > 100 µM
MDA-MB-231 breast
  TGI: > 100 µM
TK-10 renal
  TGI: > 100 µM

## c1ccc(C(OCCN2CC3CCC(C2)N3)c2ccccc2)cc1
UO-31 renal
  TGI: > 100 µM
OVCAR-8 ovarian
  TGI: > 100 µM
T-47D breast
  TGI: > 100 µM
A549 NSCLC
  TGI: > 100 µM
OVCAR-5 ovarian
  TGI: > 100 µM
SK-MEL-28 melanoma
  TGI: > 100 µM
NCI-H522 lung
  TGI: 93.1 µM
RXF 393 renal
  TGI: > 100 µM
NCI-H460 lung
  TGI: > 100 µM
SNB-75 CNS
  TGI: > 100 µM
MDA-MB-231 breast
  TGI: > 100 µM
TK-10 renal
  TGI: > 100 µM

## COc1cc2c(cc1OC)C/C(=N\O)c1cc(OC)c(OC)cc1/C=C\2
UO-31 renal
  TGI: > 69.7 µM
OVCAR-8 ovarian
  TGI: 73.3 µM
T-47D breast
  TGI: > 84.3 µM
A549 NSCLC
  TGI: > 100 µM
OVCAR-5 ovarian
  TGI: > 55.3 µM
SK-MEL-28 melanoma
  TGI: > 45 µM
NCI-H522 lung
  TGI: 4.8 µM
RXF 393 renal
  TGI: 38.4 µM
NCI-H460 lung
  TGI: > 29.4 µM
SNB-75 CNS
  TGI: 78.1 µM
MDA-MB-231 breast
  TGI: > 29.3 µM
TK-10 renal
  TGI: > 72.6 µM

## COc1cc([C@@H]2c3cc4c(cc3[C@H](OC3OC5COC(C(C)C)OC5C(O)C3O)C3COC(=O)[C@@H]32)OCO4)cc(OC)c1OC (stereo partly drawn)
UO-31 renal
  TGI: 42.1 µM
OVCAR-8 ovarian
  TGI: 30.1 µM
T-47D breast
  TGI: 65.5 µM
A549 NSCLC
  TGI: > 100 µM
OVCAR-5 ovarian
  TGI: > 73.8 µM
SK-MEL-28 melanoma
  TGI: > 100 µM
NCI-H522 lung
  TGI: 17.7 µM
RXF 393 renal
  TGI: 9.46 µM
NCI-H460 lung
  TGI: 7.18 µM
SNB-75 CNS
  TGI: 96.8 µM
MDA-MB-231 breast
  TGI: 19.2 µM
TK-10 renal
  TGI: > 100 µM

## Nc1nc(Cl)cc(Oc2ccc(Cl)cc2)n1
UO-31 renal
  TGI: > 100 µM
OVCAR-8 ovarian
  TGI: > 100 µM
T-47D breast
  TGI: > 100 µM
A549 NSCLC
  TGI: > 100 µM
OVCAR-5 ovarian
  TGI: > 100 µM
SK-MEL-28 melanoma
  TGI: > 100 µM
NCI-H522 lung
  TGI: > 72.8 µM
RXF 393 renal
  TGI: > 100 µM
NCI-H460 lung
  TGI: > 100 µM
SNB-75 CNS
  TGI: > 100 µM
MDA-MB-231 breast
  TGI: > 100 µM
TK-10 renal
  TGI: > 100 µM

## CN(CCCNC(=O)c1[nH]nc2c1ccc1ccccc12)CCCNC(=O)c1[nH]nc2c1ccc1ccccc12
UO-31 renal
  TGI: 31.4 µM
OVCAR-8 ovarian
  TGI: 30.9 µM
T-47D breast
  TGI: 36.1 µM
A549 NSCLC
  TGI: 37.6 µM
OVCAR-5 ovarian
  TGI: 37.2 µM
SK-MEL-28 melanoma
  TGI: 4.54 µM
NCI-H522 lung
  TGI: 30.8 µM
RXF 393 renal
  TGI: 30.5 µM
NCI-H460 lung
  TGI: 38 µM
SNB-75 CNS
  TGI: 31.3 µM
MDA-MB-231 breast
  TGI: 23.4 µM
TK-10 renal
  TGI: 31.8 µM

## Cc1cccc(N=Nc2ccc(O)c(CN(C)C)c2)c1
UO-31 renal
  TGI: 51.5 µM
OVCAR-8 ovarian
  TGI: 85.1 µM
T-47D breast
  TGI: 57.5 µM
A549 NSCLC
  TGI: > 100 µM
OVCAR-5 ovarian
  TGI: 98.4 µM
SK-MEL-28 melanoma
  TGI: 36.9 µM
NCI-H522 lung
  TGI: 24.1 µM
RXF 393 renal
  TGI: 73.7 µM
NCI-H460 lung
  TGI: 34.8 µM
SNB-75 CNS
  TGI: 94.5 µM
MDA-MB-231 breast
  TGI: > 100 µM
TK-10 renal
  TGI: 72.4 µM
